Our source for the IC50 values is US20220073521A1, “PYRIMIDINE AND FIVE-MEMBERED NITROGEN HETEROCYCLE DERIVATIVE, PREPARATION METHOD THEREFOR, AND MEDICAL USES THEREOF” (Tuojie Biotech (Shanghai) Co., Ltd., priority 2018, published 2022).

Each structure is given as a SMILES string. pIC50: −log10 of the molar value. Like-named read-outs stand apart in the source and are kept apart here.

Test [1] concerns the target T1, SHP2 wild-type phosphatase (recombinantly expressed full-length SHP2, aa 1-593) (Homo sapiens, UniProt Q06124).
T1 sequence (Q06124 1-593): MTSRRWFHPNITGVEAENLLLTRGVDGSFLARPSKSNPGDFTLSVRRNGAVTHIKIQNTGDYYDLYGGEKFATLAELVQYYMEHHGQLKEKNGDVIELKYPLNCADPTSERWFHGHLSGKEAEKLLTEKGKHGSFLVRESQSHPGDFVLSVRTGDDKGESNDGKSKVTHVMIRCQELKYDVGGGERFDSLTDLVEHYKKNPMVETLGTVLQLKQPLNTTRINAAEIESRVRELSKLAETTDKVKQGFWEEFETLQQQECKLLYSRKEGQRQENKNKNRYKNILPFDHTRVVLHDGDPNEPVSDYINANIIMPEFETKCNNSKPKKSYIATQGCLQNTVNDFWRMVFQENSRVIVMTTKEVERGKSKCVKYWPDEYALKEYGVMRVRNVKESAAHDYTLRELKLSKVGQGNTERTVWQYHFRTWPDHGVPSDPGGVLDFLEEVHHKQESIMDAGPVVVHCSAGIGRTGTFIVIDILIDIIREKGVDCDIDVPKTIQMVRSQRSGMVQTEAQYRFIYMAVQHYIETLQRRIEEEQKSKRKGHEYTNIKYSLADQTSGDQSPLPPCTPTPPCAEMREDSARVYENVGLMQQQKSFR
Nature of the test: In vitro activity on SHP2 wild-type phosphatase (DiFMUP fluorescence).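 Also: enzyme preincubated at room temperature, then DiFMUP reaction run at room temperature and halted with SDS, potency derived from a logistic curve fit.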 Particulars: wild-type full-length SHP2, activated polypeptide IRS1 0.5 nM, DiFMUP 30 μM.
Protocol: 0.2 nM recombinantly expressed full-length SHP2 (aa 1-593), 0.5 nM activated polypeptide IRS1 with double phosphorylation sites (sequence: H2N-LN(pY)IDLDLY(dPEG8)LST(pY)ASINFQK-amide) and a series of concentrations of the test compound (final concentrations were 1 μM, 0.3 μM, 0.1 μM, 0.03 μM, 0.01 μM, 0.003 μM, 0.001 μM, 0.0003 μM, 0.0001 μM, 0.00003 μM) were added to the phosphatase reaction solution (60 mM HEPES, pH 7.5 0.005% Brij-35, 75 mM NaCl, 75 mM KCl, 1 mM EDTA, 5 mM DTT). The reaction solution was shaked (350 rpm) at room temperature for 30 minutes. The reaction substrate DiFMUP with a final concentration of 30 μM was added, and the reaction solution was reacted at room temperature for 30 minutes. The phosphatase reaction was stopped by adding 5 μL of stop solution (60 mM HEPES, pH 7.5, 0.2% SDS). Ex358 nm/Em455 fluorescence value was read on the fluorescence plate reader MD SpectraMax.
The IC50 value of the compound was calculated using the four-parameter logit method. In the following formula, x represents the logarithmic form of the compound concentration, and F(x) represents the effect value (the inhibition rate of cell proliferation under the given concentration condition): F(x)=((A−D)/(1+((x/C)^B)))+D. A, B, C and D are four parameters. Different concentrations correspond to different inhibition rates, based on which an inverse curve was plotted, and the IC50 of the inhibitor was calculated from the curve. The IC50 of the compound was calculated with Primer premier 6.0.

The test system of a further test is p-ERK in KYSE-520 cells. Description: Determination of p-ERK in KYSE-520 cells (HTRF). Format: cell-based. Here is the method: KYSE-520 cells (Nanjing Cobioer Biosciences CO., Ltd.) in the logarithmic growth phase were inoculated (30,000 cells/well) in 1640 medium containing 10% of FBS, and adhered in a 96-well plate overnight (5% CO2, 37° C.). […] The cell culture was stopped with cell lysate. The level of phosphorylated ERK in KYSE-520 cells was determined by a method based on homogeneous time-resolved fluorescence HTRF (Cisbio, 64ERKPEG). The fluorescence values (Ex337 nm/Em625/665 nm) were read on the compatible HTRF reader (MD SpectraMax).
A general note: In TR-FRET formats the signal depends on donor and acceptor labels being close together.

In the next test the test system is KYSE-520 cells. Description: KYSE-520 cell proliferation experiment (CellTiter-Glo, 7 days). Format: cell-based. How it is done:
The treated cell plate was incubated at 37° C., 5% CO2 for 7 days. CellTiter-Glo (Promega, G7573) was used to determine the number of viable cells in each well of the treated plate. 100 μL of the detection reagent was added to each well, and the plate was incubated at room temperature for 10 minutes. Then, the […] in each well was measured with Envision plate reader (PerkinElmer). […] The IC50 value was further calculated as the compound concentration required for 50% proliferation inhibition in the best-fit curve with […].
(Cellular ATP, detected with luciferase, serves as a proxy for viable cell number.)

In general, pIC50 refers to −log10 of the IC50, conventionally taken in molar units. As for `Cc1nc(N2CCC3(CC2)CO[C@@H](C)[C@H]3N)n2ccnc2c1-c1cccc(Cl)c1Cl` (single isomer, unassigned) [The atropisomer with a RT of 2.716 minutes in Examples 3 and 4], the pIC50 in test [1] is 7.21.
`Cc1nc(N2CCC3(CCC[C@H]3N)CC2)n2ccnc2c1-c1ccnc(Cl)c1Cl` [Example 5, (R)-8-(8-(2,3-Dichloropyridin-4-yl)-7-methylimidazo[1,2-c]pyrimidin-5-yl)-8-azaspiro[4.5]decan-1-amine]: in test [1], the pIC50 is 8.54.
In the case of `COc1nccc(-c2c(C)nc(N3CCC4(CCC[C@H]4N)CC3)n3ccnc23)c1Cl` [Example 6, (R)-8-(8-(3-Chloro-2-methoxypyridin-4-yl)-7-methylimidazo[1,2-c]pyrimidin-5-yl)-8-azaspiro[4.5]decan-1-amine], the pIC50 in test [1] was 7.57.
Turning to `Cc1nc(N2CCC3(CCC[C@H]3N)CC2)n2ccnc2c1-c1ccc(OC(F)F)cc1Cl` [Example 7, (R)-8-(8-(2-Chloro-4-(difluoromethoxy)phenyl)-7-methylimidazo[1,2-c]pyrimidin-5-yl)-8-azaspiro[4.5]decan-1-amine], the pIC50 in test [1] is 7.37.
On to `Cc1nc(N2CCC3(CC2)Cc2ccccc2[C@H]3N)n2ccnc2c1-c1cccc(Cl)c1Cl` [Example 8, (S)-1′-(8-(2,3-Dichlorophenyl)-7-methylimidazo[1,2-c]pyrimidin-5-yl)-1,3-dihydrospiro[indene-2,4′-piperidin]-1-amine], for which the pIC50 with p-ERK in KYSE-520 cells (Homo sapiens, KYSE-520, 2 h) was 6.43; with KYSE-520 cells (Homo sapiens) it was 6.82; in test [1] it was 8.30.
Take `Cc1nc(N2CCC3(CC2)CO[C@@H](C)[C@H]3N)n2ccnc2c1-c1c(F)cccc1Cl` [Example 10, (3S,4S)-8-(8-(2-Chloro-6-fluorophenyl)-7-methylimidazo[1,2-c]pyrimidin-5-yl)-3-methyl-2-oxa-8-azaspiro[4.5]decan-4-amine]: in test [1], the pIC50 is 6.95.
Consider `Cc1nc(N2CCC3(CC2)CO[C@@H](C)[C@H]3N)n2ccnc2c1-c1c(F)ccc(Cl)c1Cl` [Example 11, (3S,4S)-8-(8-(2,3-Dichloro-6-fluorophenyl)-7-methylimidazo[1,2-c]pyrimidin-5-yl)-3-methyl-2-oxa-8-azaspiro[4.5]decan-4-amine], for which the pIC50 in test [1] was 7.39.
`Cc1nc(N2CCC3(CC2)CO[C@@H](C)[C@H]3N)n2ccnc2c1-c1cccc(Cl)c1Br` [Example 12, (3S,4S)-8-(8-(2-Bromo-3-chlorophenyl)-7-methylimidazo[1,2-c]pyrimidin-5-yl)-3-methyl-2-oxa-8-azaspiro[4.5]decan-4-amine]: the pIC50 with p-ERK in KYSE-520 cells (Homo sapiens, KYSE-520, 2 h) is 7.23; in the test with KYSE-520 cells (Homo sapiens) it was 6.46.
Take `C[C@@H]1OCC2(CCN(c3nc(C(F)(F)F)c(Sc4cccnc4C(F)(F)F)c4nccn34)CC2)[C@@H]1N` [Example 13, (3S,4S)-3-Methyl-8-(7-(trifluoromethyl)-8-((2-(trifluoromethyl)pyridin-3-yl)thio)imidazo[1,2-c]pyrimidin-5-yl)-2-oxa-8-azaspiro[4.5]decan-4-amine]: in test [1], the pIC50 was 6.09.
Still for that read-out and setting: as for `CC1(N)CCN(c2ncc(Sc3ccnc(F)c3Cl)c3nccn23)CC1` [Example 14, 1-(8-((3-Chloro-2-fluoropyridin-4-yl)thio)imidazo[1,2-c]pyrimidin-5-yl)-4-methylpiperidin-4-amine], the figure is 6.63.
For `N[C@@H]1CCCC12CCN(c1ncc(Sc3ccnc(F)c3Cl)c3nccn13)CC2` [Example 15, (R)-8-(8-((3-Chloro-2-fluoropyridin-4-yl)thio)imidazo[1,2-c]pyrimidin-5-yl)-8-azaspiro[4.5]decan-1-amine], the negative logarithm of the IC50 (pIC50) with p-ERK in KYSE-520 cells (Homo sapiens, KYSE-520, 2 h) was 6.71; in the test on KYSE-520 cells (Homo sapiens), 6.51; in test [1], 8.25.
Regarding `N[C@@H]1CCCC12CCN(c1ncc(Sc3cccnc3C(F)(F)F)c3nccn13)CC2` [Example 16, (R)-8-(8-((2-(Trifluoromethyl)pyridin-3-yl)thio)imidazo[1,2-c]pyrimidin-5-yl)-8-azaspiro[4.5]decan-1-amine], the pIC50 in the test with p-ERK in KYSE-520 cells (Homo sapiens, KYSE-520, 2 h) was 6.78; in the test on KYSE-520 cells (Homo sapiens), 6.26; in test [1] it was 8.17.
Regarding `C[C@@H]1OCC2(CCN(c3ncc(Sc4ccncc4C(F)(F)F)c4nccn34)CC2)[C@@H]1N` [Example 18, (3S,4S)-3-Methyl-8-(8-((3-(trifluoromethyl)pyridin-4-yl)thio)imidazo[1,2-c]pyrimidin-5-yl)-2-oxa-8-azaspiro[4.5]decan-4-amine], the pIC50 in test [1] was 8.07.
The same measure, in the same setting: the figure for `CC1(N)CCN(c2ncc(Sc3ccnc(F)c3Cl)c3nncn23)CC1` [Example 19, 1-(8-((3-Chloro-2-fluoropyridin-4-yl)thio)-[1,2,4]triazolo[4,3-c]pyrimidin-5-yl)-4-methylpiperidin-4-amine] is 6.26.
`Nc1nc(N2CCC3(CCC[C@H]3N)CC2)n2ccnc2c1-c1cccc(Cl)c1Cl` [Example 20, (R)-8-(7-Amino-8-(2,3-dichlorophenyl)imidazo[1,2-c]pyrimidin-5-yl)-8-azaspiro[4.5]decan-1-amine]: the pIC50 with p-ERK in KYSE-520 cells (Homo sapiens, KYSE-520, 2 h) was 7.07; with KYSE-520 cells (Homo sapiens), 6.75; in test [1], 8.70.
Turning to `C[C@@H]1OCC2(CCN(c3nc(N)c(-c4cccc(Cl)c4Cl)c4nccn34)CC2)[C@@H]1N` [Example 21, (3S,4S)-8-(7-Amino-8-(2,3-dichlorophenyl)imidazo[1,2-c]pyrimidin-5-yl)-3-methyl-2-oxa-8-azaspiro[4.5]decan-4-amine], the pIC50 in the test with p-ERK in KYSE-520 cells (Homo sapiens, KYSE-520, 2 h) is 7.58; in the test on KYSE-520 cells (Homo sapiens), 6.95; in test [1], 8.42.
Take `Nc1nc(N2CCC3(CCC[C@H]3N)CC2)n2ccnc2c1Sc1ccnc(F)c1Cl` [Example 22, (R)-8-(7-Amino-8-((3-chloro-2-fluoropyridin-4-yl)thio)imidazo[1,2-c]pyrimidin-5-yl)-8-azaspiro[4.5]decan-1-amine]: the negative logarithm of the IC50 (pIC50) in the test with p-ERK in KYSE-520 cells (Homo sapiens, KYSE-520, 2 h) was 7.61; with KYSE-520 cells (Homo sapiens), 6.99; in test [1], 8.68.
In the same order, the values of `Nc1nc(N2CCC3(CCC[C@H]3N)CC2)n2ccnc2c1Sc1cccnc1C(F)(F)F` [Example 23, (R)-8-(7-Amino-8-((2-(trifluoromethyl)pyridin-3-yl)thio)imidazo[1,2-c]pyrimidin-5-yl)-8-azaspiro[4.5]decan-1-amine] are 7.63, 7.29 and 8.64.
With `Cc1nccc(Sc2c(N)nc(N3CCC4(CC3)CO[C@@H](C)[C@H]4N)n3ccnc23)c1Cl` [Example 25, (3S,4S)-8-(7-Amino-8-((3-chloro-2-methylpyridin-4-yl)thio)imidazo[1,2-c]pyrimidin-5-yl)-3-methyl-2-oxa-8-azaspiro[4.5]decan-4-amine], the pIC50 in the test on p-ERK in KYSE-520 cells (Homo sapiens, KYSE-520, 2 h) is 7.54; in test [1], 8.28.
For `Nc1nccc(Sc2c(N)nc(N3CCC4(CC3)Cc3ccccc3[C@H]4N)n3ccnc23)c1Cl` [Example 29, (S)-1′-(7-Amino-8-((2-amino-3-chloropyridin-4-yl)thio)imidazo[1,2-c]pyrimidin-5-yl)-1,3-dihydrospiro[indene-2,4′-piperidin]-1-amine], the pIC50 is 7.85 with KYSE-520 cells (Homo sapiens) and 8.89 in test [1].
As to `Cc1nc(N2CCC3(CC2)Cc2ncccc2[C@H]3N)n2ccnc2c1-c1cccc(Cl)c1Cl` [Example 33, (S)-1′-(8-(2,3-Dichlorophenyl)-7-methylimidazo[1,2-c]pyrimidin-5-yl)-5,7-dihydrospiro[cyclopenta[b]pyridine-6,4′-piperidin]-5-amine], the pIC50 in test [1] is 8.92.
Same read-out and setting: as for `COc1nccc(Sc2cnc(N3CCC4(CC3)Cc3ncccc3[C@H]4N)n3ccnc23)c1Cl` [Example 35, (S)-1′-(8-((3-Chloro-2-methoxypyridin-4-yl)thio)imidazo[1,2-c]pyrimidin-5-yl)-5,7-dihydrospiro[cyclopenta[b]pyridine-6,4′-piperidin]-5-amine], the figure is 8.82.
Same read-out and setting: as for `CNc1ncccc1Sc1cnc(N2CCC3(CC2)Cc2ncccc2[C@H]3N)n2ccnc12` [Example 38, (S)-1′-(8-((2-(Methylamino)pyridin-3-yl)thio)imidazo[1,2-c]pyrimidin-5-yl)-5,7-dihydrospiro[cyclopenta[b]pyridine-6,4′-piperidin]-5-amine], the figure is 7.96.
Regarding `Cc1nc(N2CCC3(CC2)CO[C@@H](C)[C@H]3N)c(CO)nc1-c1cccc(Cl)c1Cl` [RMC4550, reference compound], the values for the pIC50 in the test with p-ERK in KYSE-520 cells (2 hours) and in the test with KYSE-520 cells were 7.46 and 6.70, respectively.
